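Cells were grown in 96-well plates and exposed to each compound for 48 hours at five concentrations; endpoints were interpolated linearly between bracketing concentrations, or set to the highest concentration if not reached. Abbreviation: GI50, concentration required for 50% inhibition of growth. The concentration for full growth arrest is given as TGI.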
Assays:
Test in all cases: NCI-60 cell line screen, 48 h
786-0 renal = test system: 786-0 renal
A498 renal = test system: A498 renal
A549 NSCLC = test system: A549 NSCLC
ACHN renal = test system: ACHN renal
BT-549 breast = test system: BT-549 breast
CAKI-1 renal = test system: CAKI-1 renal
CCRF-CEM leukemia = test system: CCRF-CEM leukemia
COLO 205 colon = test system: COLO 205 colon
DU-145 prostate = test system: DU-145 prostate
HCC-2998 colon = test system: HCC-2998 colon
HCT-116 colon = test system: HCT-116 colon
HCT-15 colon = test system: HCT-15 colon
HL-60(TB) leukemia = test system: HL-60(TB) leukemia
HOP-62 NSCLC = test system: HOP-62 NSCLC
HOP-92 NSCLC = test system: HOP-92 NSCLC
HS 578T breast = test system: HS 578T breast
HT29 colon = test system: HT29 colon
IGROV1 ovarian = test system: IGROV1 ovarian
K-562 leukemia = test system: K-562 leukemia
KM12 colon = test system: KM12 colon
LOX IMVI melanoma = test system: LOX IMVI melanoma
M14 melanoma = test system: M14 melanoma
MALME-3M melanoma = test system: MALME-3M melanoma
MCF7 breast = test system: MCF7 breast
MDA-MB-231 breast = test system: MDA-MB-231 breast
MDA-MB-435 = test system: MDA-MB-435
MOLT-4 leukemia = test system: MOLT-4 leukemia
NCI-H226 lung = test system: NCI-H226 lung
NCI-H23 lung = test system: NCI-H23 lung
NCI-H460 lung = test system: NCI-H460 lung
NCI-H522 lung = test system: NCI-H522 lung
NCI/ADR-RES ovarian = test system: NCI/ADR-RES ovarian
OVCAR-3 ovarian = test system: OVCAR-3 ovarian
OVCAR-4 ovarian = test system: OVCAR-4 ovarian
OVCAR-5 ovarian = test system: OVCAR-5 ovarian
OVCAR-8 ovarian = test system: OVCAR-8 ovarian
RPMI-8226 leukemia = test system: RPMI-8226 leukemia
RXF 393 renal = test system: RXF 393 renal
SF-268 CNS = test system: SF-268 CNS
SF-295 CNS = test system: SF-295 CNS
SF-539 CNS = test system: SF-539 CNS
SK-MEL-28 melanoma = test system: SK-MEL-28 melanoma
SK-MEL-5 melanoma = test system: SK-MEL-5 melanoma
SK-OV-3 ovarian = test system: SK-OV-3 ovarian
SN12C renal = test system: SN12C renal
SNB-19 CNS = test system: SNB-19 CNS
SNB-75 CNS = test system: SNB-75 CNS
SR leukemia = test system: SR leukemia
SW-620 colon = test system: SW-620 colon
T-47D breast = test system: T-47D breast
TK-10 renal = test system: TK-10 renal
U251 CNS = test system: U251 CNS
UACC-257 melanoma = test system: UACC-257 melanoma
UACC-62 melanoma = test system: UACC-62 melanoma
UO-31 renal = test system: UO-31 renal

Q: COc1cc(/C=C/C(=O)Nc2ccc3c(c2)/C(=C\c2cccn2C)C(=O)N3)cc(OC)c1OC was tested. Which GI50 (786-0 renal) did it give?
A: Its GI50 is 8.69 µM.

Q: And the TGI (786-0 renal)?
A: The TGI was 98.9 µM.

Q: And the GI50 (A498 renal)?
A: Its GI50 is 2.65 µM.

Q: And the TGI (A498 renal)?
A: Its TGI is 17.6 µM.

Q: What about the GI50 (A549 NSCLC) of the same molecule?
A: Its GI50 is 4.94 µM.

Q: What about the TGI (A549 NSCLC) of the same molecule?
A: Its TGI is > 100 µM.

Q: And the GI50 (ACHN renal)?
A: The GI50 was 6.05 µM.

Q: What about the TGI (ACHN renal) of the same molecule?
A: The TGI was 53.9 µM.

Q: And the GI50 (BT-549 breast)?
A: Its GI50 is 6.33 µM.

Q: What about the TGI (BT-549 breast) of the same molecule?
A: Its TGI is 24.9 µM.

Q: And the GI50 (CAKI-1 renal)?
A: The GI50 was 4.95 µM.

Q: What about the TGI (CAKI-1 renal) of the same molecule?
A: The TGI was > 100 µM.

Q: What about the GI50 (CCRF-CEM leukemia) of the same molecule?
A: The GI50 was 2.47 µM.

Q: What about the TGI (CCRF-CEM leukemia) of the same molecule?
A: Its TGI is 33.5 µM.

Q: And the GI50 (COLO 205 colon)?
A: Its GI50 is 3.51 µM.

Q: And the TGI (COLO 205 colon)?
A: The TGI was 14.2 µM.

Q: What about the GI50 (DU-145 prostate) of the same molecule?
A: Its GI50 is 7.9 µM.

Q: What about the TGI (DU-145 prostate) of the same molecule?
A: The TGI was > 100 µM.

Q: And the GI50 (HCC-2998 colon)?
A: Its GI50 is 5.34 µM.

Q: And the TGI (HCC-2998 colon)?
A: Its TGI is 20.9 µM.

Q: And the GI50 (HCT-116 colon)?
A: Its GI50 is 4.68 µM.

Q: What about the TGI (HCT-116 colon) of the same molecule?
A: Its TGI is 29.2 µM.

Q: And the GI50 (HCT-15 colon)?
A: Its GI50 is 3.83 µM.

Q: And the TGI (HCT-15 colon)?
A: Its TGI is > 100 µM.

Q: And the GI50 (HL-60(TB) leukemia)?
A: The GI50 was 2.48 µM.

Q: And the TGI (HL-60(TB) leukemia)?
A: Its TGI is 6.45 µM.

Q: What about the GI50 (HOP-62 NSCLC) of the same molecule?
A: Its GI50 is 3.71 µM.

Q: What about the TGI (HOP-62 NSCLC) of the same molecule?
A: The TGI was 32 µM.

Q: What about the GI50 (HOP-92 NSCLC) of the same molecule?
A: Its GI50 is 1.54 µM.

Q: And the TGI (HOP-92 NSCLC)?
A: The TGI was 8.46 µM.

Q: And the GI50 (HS 578T breast)?
A: Its GI50 is 3.34 µM.

Q: What about the TGI (HS 578T breast) of the same molecule?
A: Its TGI is > 100 µM.

Q: And the GI50 (HT29 colon)?
A: The GI50 was 3.45 µM.

Q: What about the TGI (HT29 colon) of the same molecule?
A: Its TGI is 16.7 µM.

Q: What about the GI50 (IGROV1 ovarian) of the same molecule?
A: The GI50 was 9.12 µM.

Q: And the TGI (IGROV1 ovarian)?
A: The TGI was 70.9 µM.

Q: And the GI50 (K-562 leukemia)?
A: Its GI50 is 3.06 µM.

Q: And the TGI (K-562 leukemia)?
A: Its TGI is > 100 µM.

Q: What about the GI50 (KM12 colon) of the same molecule?
A: Its GI50 is 3.2 µM.

Q: What about the TGI (KM12 colon) of the same molecule?
A: Its TGI is 12.9 µM.

Q: What about the GI50 (LOX IMVI melanoma) of the same molecule?
A: Its GI50 is 4.21 µM.

Q: And the TGI (LOX IMVI melanoma)?
A: Its TGI is 20.5 µM.

Q: And the GI50 (M14 melanoma)?
A: Its GI50 is 6.7 µM.

Q: What about the TGI (M14 melanoma) of the same molecule?
A: Its TGI is 45.7 µM.

Q: And the GI50 (MALME-3M melanoma)?
A: Its GI50 is 7.34 µM.

Q: What about the TGI (MALME-3M melanoma) of the same molecule?
A: The TGI was 27 µM.

Q: And the GI50 (MCF7 breast)?
A: The GI50 was 1.15 µM.

Q: And the TGI (MCF7 breast)?
A: The TGI was 6.7 µM.

Q: What about the GI50 (MDA-MB-231 breast) of the same molecule?
A: The GI50 was 2.3 µM.

Q: And the TGI (MDA-MB-231 breast)?
A: The TGI was 17.8 µM.

Q: What about the GI50 (MDA-MB-435) of the same molecule?
A: Its GI50 is 6.41 µM.

Q: And the TGI (MDA-MB-435)?
A: Its TGI is 31.4 µM.

Q: What about the GI50 (MOLT-4 leukemia) of the same molecule?
A: The GI50 was 4 µM.

Q: And the TGI (MOLT-4 leukemia)?
A: The TGI was 82.4 µM.

Q: What about the GI50 (NCI-H226 lung) of the same molecule?
A: The GI50 was 8.14 µM.

Q: What about the TGI (NCI-H226 lung) of the same molecule?
A: The TGI was 32 µM.

Q: What about the GI50 (NCI-H23 lung) of the same molecule?
A: The GI50 was 5.01 µM.

Q: What about the TGI (NCI-H23 lung) of the same molecule?
A: The TGI was 27.2 µM.

Q: And the GI50 (NCI-H460 lung)?
A: The GI50 was 4.52 µM.

Q: What about the TGI (NCI-H460 lung) of the same molecule?
A: Its TGI is 76.8 µM.

Q: What about the GI50 (NCI-H522 lung) of the same molecule?
A: The GI50 was 2.41 µM.

Q: What about the TGI (NCI-H522 lung) of the same molecule?
A: Its TGI is 11.7 µM.

Q: And the GI50 (NCI/ADR-RES ovarian)?
A: The GI50 was 67.7 µM.

Q: What about the TGI (NCI/ADR-RES ovarian) of the same molecule?
A: Its TGI is > 100 µM.

Q: And the GI50 (OVCAR-3 ovarian)?
A: The GI50 was 5.5 µM.

Q: What about the TGI (OVCAR-3 ovarian) of the same molecule?
A: The TGI was 22.3 µM.

Q: What about the GI50 (OVCAR-4 ovarian) of the same molecule?
A: The GI50 was 4.43 µM.

Q: What about the TGI (OVCAR-4 ovarian) of the same molecule?
A: The TGI was > 100 µM.

Q: What about the GI50 (OVCAR-5 ovarian) of the same molecule?
A: The GI50 was 16.6 µM.

Q: And the TGI (OVCAR-5 ovarian)?
A: Its TGI is 35.2 µM.

Q: And the GI50 (OVCAR-8 ovarian)?
A: Its GI50 is 3.75 µM.

Q: What about the TGI (OVCAR-8 ovarian) of the same molecule?
A: Its TGI is > 100 µM.

Q: And the GI50 (RPMI-8226 leukemia)?
A: The GI50 was 1.69 µM.

Q: And the TGI (RPMI-8226 leukemia)?
A: Its TGI is 4.04 µM.

Q: What about the GI50 (RXF 393 renal) of the same molecule?
A: The GI50 was 4.99 µM.

Q: And the TGI (RXF 393 renal)?
A: Its TGI is 19.7 µM.

Q: What about the GI50 (SF-268 CNS) of the same molecule?
A: The GI50 was 8.19 µM.

Q: What about the TGI (SF-268 CNS) of the same molecule?
A: Its TGI is 35.9 µM.

Q: And the GI50 (SF-295 CNS)?
A: The GI50 was 5.15 µM.

Q: And the TGI (SF-295 CNS)?
A: Its TGI is 22 µM.

Q: What about the GI50 (SF-539 CNS) of the same molecule?
A: The GI50 was 5.15 µM.

Q: What about the TGI (SF-539 CNS) of the same molecule?
A: The TGI was 19.8 µM.

Q: And the GI50 (SK-MEL-28 melanoma)?
A: Its GI50 is 4.03 µM.

Q: And the TGI (SK-MEL-28 melanoma)?
A: Its TGI is 17.7 µM.

Q: And the GI50 (SK-MEL-5 melanoma)?
A: Its GI50 is 1.92 µM.

Q: And the TGI (SK-MEL-5 melanoma)?
A: The TGI was 6.68 µM.

Q: And the GI50 (SK-OV-3 ovarian)?
A: Its GI50 is 8.35 µM.

Q: And the TGI (SK-OV-3 ovarian)?
A: Its TGI is 58.8 µM.

Q: And the GI50 (SN12C renal)?
A: Its GI50 is 3.17 µM.

Q: What about the TGI (SN12C renal) of the same molecule?
A: Its TGI is 59.8 µM.

Q: What about the GI50 (SNB-19 CNS) of the same molecule?
A: The GI50 was 3.89 µM.

Q: What about the TGI (SNB-19 CNS) of the same molecule?
A: The TGI was > 100 µM.

Q: And the GI50 (SNB-75 CNS)?
A: Its GI50 is 2.15 µM.

Q: And the TGI (SNB-75 CNS)?
A: Its TGI is 18.5 µM.

Q: And the GI50 (SR leukemia)?
A: The GI50 was 1.91 µM.

Q: And the TGI (SR leukemia)?
A: Its TGI is 48.9 µM.

Q: What about the GI50 (SW-620 colon) of the same molecule?
A: Its GI50 is 11.4 µM.

Q: What about the TGI (SW-620 colon) of the same molecule?
A: The TGI was 46.5 µM.

Q: And the GI50 (T-47D breast)?
A: The GI50 was 1.59 µM.

Q: What about the TGI (T-47D breast) of the same molecule?
A: The TGI was 13.9 µM.

Q: And the GI50 (TK-10 renal)?
A: The GI50 was 3.68 µM.

Q: And the TGI (TK-10 renal)?
A: Its TGI is 18.1 µM.

Q: And the GI50 (U251 CNS)?
A: The GI50 was 3.41 µM.

Q: And the TGI (U251 CNS)?
A: The TGI was 20 µM.

Q: And the GI50 (UACC-257 melanoma)?
A: The GI50 was 10.1 µM.

Q: And the TGI (UACC-257 melanoma)?
A: The TGI was 31.2 µM.

Q: What about the GI50 (UACC-62 melanoma) of the same molecule?
A: The GI50 was 3.45 µM.

Q: What about the TGI (UACC-62 melanoma) of the same molecule?
A: Its TGI is 33.7 µM.

Q: And the GI50 (UO-31 renal)?
A: Its GI50 is 3.47 µM.

Q: And the TGI (UO-31 renal)?
A: Its TGI is 33.3 µM.
